Source: patent publication US8420144B2, “Kokumi-imparting agent, method of using, and compositions containing same” (Ajinomoto Co., Inc., priority 2005, dated 2013)
Numbered stars: 1 amine (or outer) side, 2 acyl side, 3 side chain; on linkers, the order of the positions; unused ones are H or OH. Square brackets hold non-standard residues; d marks the D form. Ends that are not written are not given here. γGlu = O=C(O)[C@H](CCC(=O)[*:2])N[*:1]; Orn = NCCC[C@H](N)C(=O)O; Abu = CC[C@H](N)C(=O)O

Target: T1, human calcium receptor (Homo sapiens, UniProt P41180)
T1 construct: expressed in transfected cells; host or cells: Xenopus laevis oocytes microinjected with cRNA; gene amplified by PCR from human kidney cDNA (Clontech)
T1 sequence (P41180 20-1078): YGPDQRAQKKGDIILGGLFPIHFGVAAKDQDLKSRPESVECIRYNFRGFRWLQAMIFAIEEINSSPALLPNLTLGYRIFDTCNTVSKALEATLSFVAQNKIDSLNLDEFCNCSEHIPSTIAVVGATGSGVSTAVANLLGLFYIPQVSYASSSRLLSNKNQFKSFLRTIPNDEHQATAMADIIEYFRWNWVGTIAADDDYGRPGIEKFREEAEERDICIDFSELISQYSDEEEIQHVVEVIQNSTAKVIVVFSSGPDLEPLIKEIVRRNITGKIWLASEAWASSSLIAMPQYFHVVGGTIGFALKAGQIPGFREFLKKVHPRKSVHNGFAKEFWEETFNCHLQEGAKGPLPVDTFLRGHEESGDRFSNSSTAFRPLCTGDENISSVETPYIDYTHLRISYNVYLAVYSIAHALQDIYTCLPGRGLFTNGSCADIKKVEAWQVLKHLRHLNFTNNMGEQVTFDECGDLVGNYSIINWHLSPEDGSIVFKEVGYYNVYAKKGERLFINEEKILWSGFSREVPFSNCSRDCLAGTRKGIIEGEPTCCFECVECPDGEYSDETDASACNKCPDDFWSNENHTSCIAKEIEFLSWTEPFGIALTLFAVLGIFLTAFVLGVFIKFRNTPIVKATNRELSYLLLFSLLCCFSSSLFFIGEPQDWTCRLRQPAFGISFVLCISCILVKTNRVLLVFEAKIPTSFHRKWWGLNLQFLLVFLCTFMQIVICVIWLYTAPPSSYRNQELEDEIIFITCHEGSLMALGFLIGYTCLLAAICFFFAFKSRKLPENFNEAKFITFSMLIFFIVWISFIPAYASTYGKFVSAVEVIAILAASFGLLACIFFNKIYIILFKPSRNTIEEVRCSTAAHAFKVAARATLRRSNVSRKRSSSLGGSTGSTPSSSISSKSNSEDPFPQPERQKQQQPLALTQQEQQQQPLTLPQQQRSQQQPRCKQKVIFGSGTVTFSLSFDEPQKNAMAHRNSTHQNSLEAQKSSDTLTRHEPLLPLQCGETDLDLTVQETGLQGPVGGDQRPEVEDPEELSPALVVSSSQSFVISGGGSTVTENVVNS
Assay: Calcium receptor activation activity: Ca ion concentration-dependent Cl ionic current in Xenopus laevis oocyte expression system
Format: cell-based
Conditions: 50 μM peptide; oocytes voltage-clamped at −70 mV
Description: To evaluate calcium receptor activation activity, a Ca ion concentration-dependent Cl ionic current measuring method using a Xenopus laevis oocyte expression system was used. If each activator is added to Xenopus laevis oocytes expressing the calcium receptor, intracellular Ca ions increase. Then, the Ca ion concentration-dependent Cl channel opens, and the intracellular current value changes as an ionic current. By measuring the change in this intracellular current value, the presence or absence of calcium receptor activation activity can be determined.
Specifically, the abdomen of Xenopus laevis was opened, and an egg batch was taken out and treated with a 1% collagenase solution at 20° C. for 2 hours to obtain individual oocytes. Into the oocytes, 50 nl of 1 μg/μl receptor cRNA or 50 nl of sterilized water per oocyte was introduced by using a micro glass capillary, and the oocytes were cultured at 18° C. for 2 or 3 days. For the culture, a solution obtained by adding 2 mM pyruvic acid, 10 U/ml of penicillin, and 10 μg/ml of streptomycin to the solution in Example 2 was used. After the culture, a test solution was added to the oocytes containing either the cRNA or sterilized water. Electrophysiological measurement was performed by using an amplifier, Geneclamp500 (Axon), and recording software, AxoScope 9.0 (Axon). The oocytes were voltage-clamped at −70 mV by the double electrode voltage clamp method, and the intracellular current was measured via the Ca ion concentration-dependent Cl ion channel. The maximum value of the intracellular current was considered as the response current value.
Calcium receptor activation activity of L-amino acids was evaluated by using the method described in Example 13. That is, oocytes containing either cRNA of the calcium receptor or sterilized water were prepared, and voltage-clamped at −70 mV by the double electrode voltage clamp method. To the voltage-clamped oocytes, alanine (10 mM), arginine (10 mM), asparagine (10 mM), aspartic acid (10 mM), cysteine (10 mM), glutamine (10 mM), glutamic acid (10 mM), glycine (10 mM), histidine (10 mM), isoleucine (10 mM), leucine (10 mM), lysine (10 mM), methionine (10 mM), phenylalanine (10 mM), proline (10 mM), serine (10 mM), threonine (10 mM), tryptophan (10 mM), tyrosine (10 mM), valine (10 mM), ornithine (10 mM), taurine (10 mM), or hydroxyproline (10 mM) was added, and Ca ion concentration-dependent Cl response current was measured. […] As for the aforementioned amino acids, the activation activity was reported in Proc. Natl. Acad. Sci. USA, 2000 Apr. 25, 97(9):4814-9.
Calcium receptor activation activity of D-cysteine was evaluated by using the method described in Example 13. That is, oocytes containing either cRNA of the calcium receptor or sterilized water were prepared, and voltage-clamped at −70 mV by the double electrode voltage clamp method. To the voltage-clamped oocytes, D-cysteine (10 mM), L-cysteine (10 mM), D-tryptophan (10 mM), or L-tryptophan (10 mM) was added, and Ca ion concentration-dependent Cl response current was measured.
Calcium receptor activation activity of peptides was evaluated by using the method described in Example 13. That is, oocytes containing either cRNA of the calcium receptor or sterilized water were prepared, and voltage-clamped at −70 mV by the double electrode voltage clamp method.
Calcium receptor activation activity of peptides was evaluated in the same manner as that of Example 17. Each of the peptides shown in Table 2 was added to voltage-clamped oocytes at 1000 μM, 300 μM, 100 μM, 30 μM, 10 μM, 3 μM, 1 μM, 0.3 μM, and 0.1 μM, and Ca ion concentration-dependent Cl response current was measured.

| Molecule | calcium receptor activation activity (Ca ion concentration-dependent Cl response current) |
| --- | --- |
| [γGlu]-Cys | definitive calcium receptor activation activity |
| [γGlu]-Thr | definitive calcium receptor activation activity |
| Glu-Cys | definitive calcium receptor activation activity |
| [γGlu]-Ala | definitive calcium receptor activation activity |
| N[C@@H](CCC(=O)N[C@@H](CSN=O)C(=O)NCC(=O)O)C(=O)O [γ-Glu-Cys(SNO)-Gly] | definitive calcium receptor activation activity |
| [γGlu]-Val | definitive calcium receptor activation activity |

Same assay, conditions: 500 μM peptide; oocytes voltage-clamped at −70 mV

| Molecule | calcium receptor activation activity (Ca ion concentration-dependent Cl response current) |
| --- | --- |
| Gly-Cys | definitive calcium receptor activation activity |
| [γGlu]-Met | definitive calcium receptor activation activity |
| γ-Glu-Orn | definitive calcium receptor activation activity |
| [γGlu]-Gly | definitive calcium receptor activation activity |

Same assay, conditions: 1 mM peptide; oocytes voltage-clamped at −70 mV

| Molecule | calcium receptor activation activity (Ca ion concentration-dependent Cl response current) |
| --- | --- |
| Leu-Asp | definitive calcium receptor activation activity |
| Cys-Met | definitive calcium receptor activation activity |
| Cys-Gly | definitive calcium receptor activation activity |
| Asp-Gly | definitive calcium receptor activation activity |

Same assay, conditions: 10 mM amino acid; oocytes voltage-clamped at −70 mV

| Molecule | calcium receptor activation activity (Ca ion concentration-dependent Cl response current) |
| --- | --- |
| N[C@@H](Cc1ccccc1)C(=O)O [phenylalanine, reference compound] | definite calcium receptor activation activity |
| N[C@H](CS)C(=O)O [D-cysteine] | definitive calcium receptor activation activity |
| N[C@@H](Cc1c[nH]c2ccccc12)C(=O)O [tryptophan, reference compound] | definite calcium receptor activation activity |
| N[C@@H](Cc1c[nH]cn1)C(=O)O [histidine, reference compound] | definite calcium receptor activation activity |
| N[C@@H](CS)C(=O)O [cysteine, reference compound] | definite calcium receptor activation activity |
| N[C@@H](Cc1ccc(O)cc1)C(=O)O [tyrosine, reference compound] | definite calcium receptor activation activity |

Same assay, conditions: added at 1000, 300, 100, 30, 10, 3, 1, 0.3 and 0.1 μM

| Molecule | Activity (lowest concentration for which current was detected) [µM] |
| --- | --- |
| [γGlu]-Val-His | 100 |
| [γGlu]-Val-[Orn] | 100 |
| [γGlu]-Val-Cys | 10 |
| [γGlu]-Val-Gln | 10 |
| γ-Glu-Cys(S-Me)-Gly | 3 |
| [γGlu]-Val-Asn | 30 |
| [γGlu]-[γGlu]-Val | 1000 |
| [γGlu]-Val-Ser | 30 |
| [γGlu]-Val-Arg | 1000 |
| [γGlu]-Val-Lys | 1000 |
| [γGlu]-[Abu]-Gly | 3 |
| [γGlu]-Val-Met | 1000 |
| [γGlu]-Val-Glu | 1000 |
| γ-Glu-t-Leu | 100 |
| γ-Glu-Tau | 300 |
| [γGlu]-Val-Thr | 1000 |
| γ-Glu-Cys(S-allyl)-Gly | 100 |
| [γGlu]-Val-Pro | 30 |
| [γGlu]-Val-Val | 1000 |
| γ-Glu-Val-Asp | 1000 |
| [γGlu]-Ser-Gly | 30 |
| [γGlu]-Gly-Gly | 30 |
| [γGlu]-Val-Phe | 30 |

System: not listed separately
Assay: Quantitative sensory evaluation test of kokumi-imparting activity in water with sodium glutamate, inosine monophosphate and sodium chloride
Format: in vivo, human
Conditions: Table 5; 0.1 g/dl; n=3; control 0, glutathione 3 points
Description: Sample solutions that became acidic after dissolution of the samples were adjusted to pH 6.8 to 7.2 with NaOH before use. Sensory evaluation scores were used for evaluation based on the control sample (0 points) and the glutathione sample (3 points), and the test was performed with n=3.
The sample solutions that became acidic after dissolution of the samples were adjusted to pH 6.8 to 7.2 with NaOH before use. Sensory evaluation scores were used for evaluation based on the control sample (0 points) and the glutathione sample (3 points), and the test was performed with n=5.
Sample solutions that became acidic after dissolution of the samples were adjusted to pH 6.8 to 7.2 with NaOH before use. Sensory evaluation scores were used for evaluation based on the control sample (0 points) and the glutathione sample (3 points), and the test was performed with n=12.

| Molecule | Intensity of kokumi: Aftertaste [points] | Intensity of kokumi: First and middle taste [points] |
| --- | --- | --- |
| [γGlu]-Met | 0.4 | 1.5 |
| [γGlu]-Ala | 0.2 | 0.5 |
| [γGlu]-Val | 1.0 | 3.0 |

Same assay, conditions: Table 6; 0.1 g/dl; n=5; control 0, glutathione 3 points

| Molecule | Intensity of kokumi: Aftertaste [points] | Intensity of kokumi: First and middle taste [points] |
| --- | --- | --- |
| [γGlu]-Cys | 2.0 | 2.0 |
| [γGlu]-Val | 1.0 | 3.0 |

Same assay, conditions: Table 7; 0.01 g/dl; n=12; control 0, glutathione 3 points

| Molecule | Intensity of kokumi: Aftertaste [points] | Intensity of kokumi: First and middle taste [points] |
| --- | --- | --- |
| [γGlu]-[Abu]-Gly | 2.0 | 3.0 |
